≈ marks a conversion by molar mass, not a printed value.
Tested on: Pseudomonas aeruginosa
Assay: Antibacterial activity against Pseudomonas aeruginosa PAO1 after 24 hrs by two-fold serial dilution method
Format: functional
Conditions: PAO1, 24 h

Row | MIC | SMILES
1 | 518 µM (≈ 250 µg/mL) | CCOC(=O)C1=C(N/N=C(/C(C)=O)C(=O)OCC)Nc2[nH]nc(C)c2C1c1ccc(N(C)C)cc1 (stereo not given)
2 | 128 µM (≈ 62.5 µg/mL) | CCOC(=O)C1=C(N/C=N/c2ccc([N+](=O)[O-])cc2)Nc2[nH]nc(C)c2C1c1ccc(N(C)C)cc1 (stereo not given)

Row | SMILES | MIC
3 | CCOC(=O)C1=C(NN=C(C#N)C#N)Nc2[nH]nc(C)c2C1c1ccc(N(C)C)cc1 (stereo not given) | 1190 µM (≈ 500 µg/mL)

Tested on: Ehrlich
Assay: Antitumor activity against mouse EAC cells allografted in Swiss mouse assessed as viable tumor cell count at 0.5 mg/mouse administered for 9 days (reference value: 77.41 10^6/ml)
Format: functional
Conditions: not given

Row | SMILES | Activity
4 | CCOC(=O)C1=C(NN=C(C#N)C#N)Nc2[nH]nc(C)c2C1c1ccc(N(C)C)cc1 (stereo not given) | 30.93 ×10⁶ /ml

Tested on: Aspergillus flavus
Assay: Antifungal activity against Aspergillus flavus 3375 after 48 hrs by two-fold serial dilution method
Format: functional
Conditions: Aspergillus flavus, 3375, 48 h

Row | MIC | SMILES
5 | 2070 µM (≈ 1000 µg/mL) | CCOC(=O)C1=C(N/N=C(/C(C)=O)C(=O)OCC)Nc2[nH]nc(C)c2C1c1ccc(N(C)C)cc1 (stereo not given)
6 | 4090 µM (≈ 2000 µg/mL) | CCOC(=O)C1=C(N/C=N/c2ccc([N+](=O)[O-])cc2)Nc2[nH]nc(C)c2C1c1ccc(N(C)C)cc1 (stereo not given)

Row | SMILES | MIC
7 | CCOC(=O)C1=C(NN=C(C#N)C#N)Nc2[nH]nc(C)c2C1c1ccc(N(C)C)cc1 (stereo not given) | 2390 µM (≈ 1000 µg/mL)

Tested on: Mus musculus
Assay: Toxicity in Swiss albino mouse implanted with mouse EAC cells assessed as RBC count at 0.5 mg/mouse administered for 9 days (reference value: 3.59 10^6/mm3)
Format: organism-based
Conditions: in vivo, 216 h

Row | SMILES | Activity
8 | CCOC(=O)C1=C(NN=C(C#N)C#N)Nc2[nH]nc(C)c2C1c1ccc(N(C)C)cc1 (stereo not given) | 5.14 ×10⁶ /mm3

Tested on: Mus musculus
Assay: Toxicity in Swiss albino mouse implanted with mouse EAC cells assessed as hemoglobin level at 0.5 mg/mouse administered for 9 days (reference value: 7.05 g/dl)
Format: organism-based
Conditions: in vivo, 216 h

Row | SMILES | Activity
9 | CCOC(=O)C1=C(NN=C(C#N)C#N)Nc2[nH]nc(C)c2C1c1ccc(N(C)C)cc1 (stereo not given) | 12.65 g/dL

Tested on: WISH
Assay: Cytotoxicity against human WISH cells after 48 hrs by MTT assay
Format: cell-based
Conditions: not given

Row | SMILES | IC50
10 | CCOC(=O)C1=C(NN=C(C#N)C#N)Nc2[nH]nc(C)c2C1c1ccc(N(C)C)cc1 (stereo not given) | 45.2 µM

Tested on: Ehrlich
Assay: Antitumor activity against mouse EAC cells allografted in Swiss mouse assessed as mean survival time at 0.5 mg/mouse administered for 9 days (reference value: 18 day)
Format: functional
Conditions: not given

Row | SMILES | MSD
11 | CCOC(=O)C1=C(NN=C(C#N)C#N)Nc2[nH]nc(C)c2C1c1ccc(N(C)C)cc1 (stereo not given) | 39 days

Tested on: Aspergillus fumigatus
Assay: Antifungal activity against Aspergillus fumigatus 293 after 48 hrs by two-fold serial dilution method
Format: functional
Conditions: Aspergillus fumigatus, 293, 48 h

Row | MIC | SMILES
12 | 2070 µM (≈ 1000 µg/mL) | CCOC(=O)C1=C(N/N=C(/C(C)=O)C(=O)OCC)Nc2[nH]nc(C)c2C1c1ccc(N(C)C)cc1 (stereo not given)
13 | 4090 µM (≈ 2000 µg/mL) | CCOC(=O)C1=C(N/C=N/c2ccc([N+](=O)[O-])cc2)Nc2[nH]nc(C)c2C1c1ccc(N(C)C)cc1 (stereo not given)

Row | SMILES | MIC
14 | CCOC(=O)C1=C(NN=C(C#N)C#N)Nc2[nH]nc(C)c2C1c1ccc(N(C)C)cc1 (stereo not given) | 2390 µM (≈ 1000 µg/mL)

Tested on: Bacillus cereus
Assay: Antibacterial activity against Bacillus cereus UW 85 after 24 hrs by two-fold serial dilution method
Format: functional
Conditions: UW 85, 24 h

Row | MIC | SMILES
15 | 518 µM (≈ 250 µg/mL) | CCOC(=O)C1=C(N/N=C(/C(C)=O)C(=O)OCC)Nc2[nH]nc(C)c2C1c1ccc(N(C)C)cc1 (stereo not given)
16 | 1050 µM (≈ 515 µg/mL) | CCOC(=O)C1=C(N/C=N/c2ccc([N+](=O)[O-])cc2)Nc2[nH]nc(C)c2C1c1ccc(N(C)C)cc1 (stereo not given)

Row | SMILES | MIC
17 | CCOC(=O)C1=C(NN=C(C#N)C#N)Nc2[nH]nc(C)c2C1c1ccc(N(C)C)cc1 (stereo not given) | 2390 µM (≈ 1000 µg/mL)

Tested on: Ehrlich
Assay: Antitumor activity against mouse EAC cells allografted in Swiss mouse assessed as increase in life span at 0.5 mg/mouse administered for 9 days relative to control
Format: functional
Conditions: not given

Row | SMILES | Activity
18 | CCOC(=O)C1=C(NN=C(C#N)C#N)Nc2[nH]nc(C)c2C1c1ccc(N(C)C)cc1 (stereo not given) | 116.7%

Tested on: WI-38
Assay: Cytotoxicity against human W138 cells after 48 hrs by MTT assay
Format: cell-based
Conditions: WI-38, 48 h

Row | SMILES | IC50
19 | CCOC(=O)C1=C(NN=C(C#N)C#N)Nc2[nH]nc(C)c2C1c1ccc(N(C)C)cc1 (stereo not given) | 42.7 µM

Tested on: Ehrlich
Assay: Antitumor activity against mouse EAC cells allografted in Swiss mouse assessed as tumor volume at 0.5 mg/mouse administered for 9 days (reference value: 10.15 mL)
Format: functional
Conditions: not given

Row | SMILES | Activity
20 | CCOC(=O)C1=C(NN=C(C#N)C#N)Nc2[nH]nc(C)c2C1c1ccc(N(C)C)cc1 (stereo not given) | 2.25 mL

Tested on: HepG2
Assay: Antitumor activity against human HepG2 cells assessed as inhibition of cell proliferation after 48 hrs by MTT assay
Format: functional, cell-based
Conditions: HepG2, 48 h

Row | IC50 | SMILES
21 | > 100 µM | CCOC(=O)C1=C(N/N=C(/C(C)=O)C(=O)OCC)Nc2[nH]nc(C)c2C1c1ccc(N(C)C)cc1 (stereo not given)
22 | 50.9 µM | CCOC(=O)C1=C(N/C=N/c2ccc([N+](=O)[O-])cc2)Nc2[nH]nc(C)c2C1c1ccc(N(C)C)cc1 (stereo not given)

Row | SMILES | IC50
23 | CCOC(=O)C1=C(NN=C(C#N)C#N)Nc2[nH]nc(C)c2C1c1ccc(N(C)C)cc1 (stereo not given) | 13.7 µM

Tested on: Staphylococcus aureus
Assay: Antibacterial activity against Staphylococcus aureus ATCC 29213 after 24 hrs by two-fold serial dilution method
Format: functional
Conditions: ATCC 29213, 24 h

Row | MIC | SMILES
24 | 2070 µM (≈ 1000 µg/mL) | CCOC(=O)C1=C(N/N=C(/C(C)=O)C(=O)OCC)Nc2[nH]nc(C)c2C1c1ccc(N(C)C)cc1 (stereo not given)
25 | 255 µM (≈ 125 µg/mL) | CCOC(=O)C1=C(N/C=N/c2ccc([N+](=O)[O-])cc2)Nc2[nH]nc(C)c2C1c1ccc(N(C)C)cc1 (stereo not given)

Row | SMILES | MIC
26 | CCOC(=O)C1=C(NN=C(C#N)C#N)Nc2[nH]nc(C)c2C1c1ccc(N(C)C)cc1 (stereo not given) | 4780 µM (≈ 2000 µg/mL)

Tested on: Candida albicans
Assay: Antifungal activity against Candida albicans after 48 hrs by two-fold serial dilution method
Format: functional
Conditions: not given

Row | MIC | SMILES
27 | 4140 µM (≈ 2000 µg/mL) | CCOC(=O)C1=C(N/N=C(/C(C)=O)C(=O)OCC)Nc2[nH]nc(C)c2C1c1ccc(N(C)C)cc1 (stereo not given)
28 | 2040 µM (≈ 1000 µg/mL) | CCOC(=O)C1=C(N/C=N/c2ccc([N+](=O)[O-])cc2)Nc2[nH]nc(C)c2C1c1ccc(N(C)C)cc1 (stereo not given)

Row | SMILES | MIC
29 | CCOC(=O)C1=C(NN=C(C#N)C#N)Nc2[nH]nc(C)c2C1c1ccc(N(C)C)cc1 (stereo not given) | 2390 µM (≈ 1000 µg/mL)

Tested on: HeLa
Assay: Antitumor activity against human HeLa cells assessed as inhibition of cell proliferation after 48 hrs by MTT assay
Format: functional, cell-based
Conditions: read-out: IC50

Row | IC50 | SMILES
30 | > 100 µM | CCOC(=O)C1=C(N/N=C(/C(C)=O)C(=O)OCC)Nc2[nH]nc(C)c2C1c1ccc(N(C)C)cc1 (stereo not given)
31 | 57.8 µM | CCOC(=O)C1=C(N/C=N/c2ccc([N+](=O)[O-])cc2)Nc2[nH]nc(C)c2C1c1ccc(N(C)C)cc1 (stereo not given)

Row | SMILES | IC50
32 | CCOC(=O)C1=C(NN=C(C#N)C#N)Nc2[nH]nc(C)c2C1c1ccc(N(C)C)cc1 (stereo not given) | 15.2 µM

Tested on: Chromobacterium violaceum
Assay: Inhibition of quorum sensing system in Chromobacterium violaceum ATCC 12472 assessed as diameter of violacein pigment inhibition at 5 mg/ml after 48 hrs
Conditions: not given

Row | diameter of the inhibition zone (DIZ) | SMILES
33 | < 2 mm | CCOC(=O)C1=C(N/N=C(/C(C)=O)C(=O)OCC)Nc2[nH]nc(C)c2C1c1ccc(N(C)C)cc1 (stereo not given)
34 | 7 mm | CCOC(=O)C1=C(N/C=N/c2ccc([N+](=O)[O-])cc2)Nc2[nH]nc(C)c2C1c1ccc(N(C)C)cc1 (stereo not given)

Row | SMILES | diameter of the inhibition zone (DIZ)
35 | CCOC(=O)C1=C(NN=C(C#N)C#N)Nc2[nH]nc(C)c2C1c1ccc(N(C)C)cc1 (stereo not given) | < 2 mm

Tested on: MCF7
Assay: Antitumor activity against human MCF7 cells assessed as inhibition of cell proliferation after 48 hrs by MTT assay
Format: functional, cell-based
Conditions: MCF7, 48 h

Row | IC50 | SMILES
36 | > 100 µM | CCOC(=O)C1=C(N/N=C(/C(C)=O)C(=O)OCC)Nc2[nH]nc(C)c2C1c1ccc(N(C)C)cc1 (stereo not given)
37 | 58.6 µM | CCOC(=O)C1=C(N/C=N/c2ccc([N+](=O)[O-])cc2)Nc2[nH]nc(C)c2C1c1ccc(N(C)C)cc1 (stereo not given)

Row | SMILES | IC50
38 | CCOC(=O)C1=C(NN=C(C#N)C#N)Nc2[nH]nc(C)c2C1c1ccc(N(C)C)cc1 (stereo not given) | 12.1 µM

Biological target: not listed separately
Assay: Displacement of methyl green from DNA (unknown origin) incubated in dark for 24 hrs
Conditions: not given

Row | IC50 | SMILES
39 | 68.2 µM | CCOC(=O)C1=C(N/N=C(/C(C)=O)C(=O)OCC)Nc2[nH]nc(C)c2C1c1ccc(N(C)C)cc1 (stereo not given)
40 | 59.6 µM | CCOC(=O)C1=C(N/C=N/c2ccc([N+](=O)[O-])cc2)Nc2[nH]nc(C)c2C1c1ccc(N(C)C)cc1 (stereo not given)

Row | SMILES | IC50
41 | CCOC(=O)C1=C(NN=C(C#N)C#N)Nc2[nH]nc(C)c2C1c1ccc(N(C)C)cc1 (stereo not given) | 44 µM

Tested on: Mus musculus
Assay: Toxicity in Swiss albino mouse implanted with mouse EAC cells assessed as WBC count at 0.5 mg/mouse administered for 9 days (reference value: 20.53 10^3/mm3)
Format: organism-based
Conditions: in vivo, 216 h

Row | SMILES | Activity
42 | CCOC(=O)C1=C(NN=C(C#N)C#N)Nc2[nH]nc(C)c2C1c1ccc(N(C)C)cc1 (stereo not given) | 10.69 ×10³ /mm3

Tested on: Escherichia coli
Assay: Antibacterial activity against Escherichia coli ATCC 12435 after 24 hrs by two-fold serial dilution method
Format: functional
Conditions: ATCC 12435, 24 h

Row | MIC | SMILES
43 | 518 µM (≈ 250 µg/mL) | CCOC(=O)C1=C(N/N=C(/C(C)=O)C(=O)OCC)Nc2[nH]nc(C)c2C1c1ccc(N(C)C)cc1 (stereo not given)
44 | 128 µM (≈ 62.5 µg/mL) | CCOC(=O)C1=C(N/C=N/c2ccc([N+](=O)[O-])cc2)Nc2[nH]nc(C)c2C1c1ccc(N(C)C)cc1 (stereo not given)

Row | SMILES | MIC
45 | CCOC(=O)C1=C(NN=C(C#N)C#N)Nc2[nH]nc(C)c2C1c1ccc(N(C)C)cc1 (stereo not given) | 2390 µM (≈ 1000 µg/mL)
